# From US7118895B2, “Process for producing aglycon by using diglycosidase and flavor-improved food containing the aglycon and converting agent to be used in the process” (Amano Enzyme Inc., priority 2000, dated 2006)
# System: Crude diglycosidase
# Assay: Examination of pH in the conversion into isoflavone aglycons by diglycosidase using soybean materials
# Assay type: biochemical, Penicillium multicolor IAM7153
# Set-up: Decomposition efficiency of genistin family in soymilk / Decomposition efficiency of genistin family in defatted soybean / Decomposition efficiency of daidzin family in defatted soybean: concentration or dose not given beside the values
# Conditions: for Decomposition efficiency of daidzin family in roasted soy flour: 55° C.
# Outline: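 Each soybean material (50 mg) is suspended and set to a pH between 2 and 11. Crude diglycosidase, adjusted to 1.88 AU/mL in enzyme solution of the same pH, is added, and the mixture is incubated at 55° C. Ethanol is added at 0, 1, 3 and 6 h, then supernatants go to HPLC.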
# [1] = pH4.8, heat treatment of enzyme: no, reaction time 0 h
# [2] = pH4.8, heat treatment of enzyme: no, reaction time 1 h
# [3] = pH4.8, heat treatment of enzyme: no, reaction time 3 h
# [4] = pH4.8, heat treatment of enzyme: no, reaction time 6 h
# [5] = pH4.8, heat treatment of enzyme: yes, reaction time 6 h
smiles,measurement,setting,value
"CC(=O)OC[C@H]1O[C@@H](Oc2ccc3c(=O)c(-c4ccc(O)cc4)coc3c2)[C@H](O)[C@@H](O)[C@@H]1O [acetyldaidzin, 6″-O-acetyldaidzin]",Decomposition efficiency of daidzin family in concentrated soybean protein,"pH1.6, heat treatment of enzyme: no, reaction time 0 h",44.5%
same,Decomposition efficiency of daidzin family in concentrated soybean protein,"pH1.6, heat treatment of enzyme: no, reaction time 1 h",43.7%
same,Decomposition efficiency of daidzin family in concentrated soybean protein,"pH1.6, heat treatment of enzyme: no, reaction time 3 h",41.7%
same,Decomposition efficiency of daidzin family in concentrated soybean protein,"pH1.6, heat treatment of enzyme: no, reaction time 6 h",39.4%
same,Decomposition efficiency of daidzin family in concentrated soybean protein,"pH1.6, heat treatment of enzyme: yes, reaction time 6 h",38.1%
same,Decomposition efficiency of daidzin family in roasted soy flour,"pH2, heat treatment of enzyme no, reaction time 0 h",47.4
same,Decomposition efficiency of daidzin family in roasted soy flour,"pH2, heat treatment of enzyme no, reaction time 1 h",46.9
same,Decomposition efficiency of daidzin family in roasted soy flour,"pH2, heat treatment of enzyme no, reaction time 3 h",45.0
same,Decomposition efficiency of daidzin family in roasted soy flour,"pH2, heat treatment of enzyme no, reaction time 6 h",42.4
same,Decomposition efficiency of daidzin family in roasted soy flour,"pH2, heat treatment of enzyme yes, reaction time 6 h",42.4
same,Decomposition efficiency of daidzin family in soymilk,"pH2.3, heat treatment of enzyme: no, reaction time 0 h",not detected
same,Decomposition efficiency of daidzin family in soymilk,"pH2.3, heat treatment of enzyme: no, reaction time 1 h",not detected
same,Decomposition efficiency of daidzin family in soymilk,"pH2.3, heat treatment of enzyme: no, reaction time 3 h",not detected
same,Decomposition efficiency of daidzin family in soymilk,"pH2.3, heat treatment of enzyme: no, reaction time 6 h",not detected
same,Decomposition efficiency of daidzin family in soymilk,"pH2.3, heat treatment of enzyme: yes, reaction time 6 h",not detected
same,Decomposition efficiency of daidzin family in defatted soybean,"pH2.6, heat treatment of enzyme: no, reaction time 0 h",not detected
same,Decomposition efficiency of daidzin family in defatted soybean,"pH2.6, heat treatment of enzyme: no, reaction time 1 h",not detected
same,Decomposition efficiency of daidzin family in defatted soybean,"pH2.6, heat treatment of enzyme: no, reaction time 3 h",not detected
same,Decomposition efficiency of daidzin family in defatted soybean,"pH2.6, heat treatment of enzyme: no, reaction time 6 h",not detected
same,Decomposition efficiency of daidzin family in defatted soybean,"pH2.6, heat treatment of enzyme: yes, reaction time 6 h",not detected
same,Decomposition efficiency of daidzin family in concentrated soybean protein,"pH2.7, heat treatment of enzyme: no, reaction time 0 h",44.5%
same,Decomposition efficiency of daidzin family in concentrated soybean protein,"pH2.7, heat treatment of enzyme: no, reaction time 1 h",46.4%
same,Decomposition efficiency of daidzin family in concentrated soybean protein,"pH2.7, heat treatment of enzyme: no, reaction time 3 h",46.0%
same,Decomposition efficiency of daidzin family in concentrated soybean protein,"pH2.7, heat treatment of enzyme: no, reaction time 6 h",45.8%
same,Decomposition efficiency of daidzin family in concentrated soybean protein,"pH2.7, heat treatment of enzyme: yes, reaction time 6 h",43.9%
same,Decomposition efficiency of daidzin family in roasted soy flour,"pH3, heat treatment of enzyme no, reaction time 0 h",47.4
same,Decomposition efficiency of daidzin family in roasted soy flour,"pH3, heat treatment of enzyme no, reaction time 1 h",46.0
same,Decomposition efficiency of daidzin family in roasted soy flour,"pH3, heat treatment of enzyme no, reaction time 3 h",39.6
same,Decomposition efficiency of daidzin family in roasted soy flour,"pH3, heat treatment of enzyme no, reaction time 6 h",40.7
same,Decomposition efficiency of daidzin family in roasted soy flour,"pH3, heat treatment of enzyme yes, reaction time 6 h",47.4
same,Decomposition efficiency of daidzin family in defatted soybean,"pH3.4, heat treatment of enzyme: no, reaction time 0 h",not detected
same,Decomposition efficiency of daidzin family in defatted soybean,"pH3.4, heat treatment of enzyme: no, reaction time 1 h",not detected
same,Decomposition efficiency of daidzin family in defatted soybean,"pH3.4, heat treatment of enzyme: no, reaction time 3 h",not detected
same,Decomposition efficiency of daidzin family in defatted soybean,"pH3.4, heat treatment of enzyme: no, reaction time 6 h",not detected
same,Decomposition efficiency of daidzin family in defatted soybean,"pH3.4, heat treatment of enzyme: yes, reaction time 6 h",not detected
same,Decomposition efficiency of daidzin family in soymilk,"pH3.5, heat treatment of enzyme: no, reaction time 0 h",not detected
same,Decomposition efficiency of daidzin family in soymilk,"pH3.5, heat treatment of enzyme: no, reaction time 1 h",not detected
same,Decomposition efficiency of daidzin family in soymilk,"pH3.5, heat treatment of enzyme: no, reaction time 3 h",not detected
same,Decomposition efficiency of daidzin family in soymilk,"pH3.5, heat treatment of enzyme: no, reaction time 6 h",not detected
same,Decomposition efficiency of daidzin family in soymilk,"pH3.5, heat treatment of enzyme: yes, reaction time 6 h",not detected
same,Decomposition efficiency of daidzin family in concentrated soybean protein,"pH3.7, heat treatment of enzyme: no, reaction time 0 h",44.6%
same,Decomposition efficiency of daidzin family in concentrated soybean protein,"pH3.7, heat treatment of enzyme: no, reaction time 1 h",41.6%
same,Decomposition efficiency of daidzin family in concentrated soybean protein,"pH3.7, heat treatment of enzyme: no, reaction time 3 h",33.0%
same,Decomposition efficiency of daidzin family in concentrated soybean protein,"pH3.7, heat treatment of enzyme: no, reaction time 6 h",25.2%
same,Decomposition efficiency of daidzin family in concentrated soybean protein,"pH3.7, heat treatment of enzyme: yes, reaction time 6 h",44.4%
same,Decomposition efficiency of daidzin family in roasted soy flour,"pH4, heat treatment of enzyme no, reaction time 0 h",47.7
same,Decomposition efficiency of daidzin family in roasted soy flour,"pH4, heat treatment of enzyme no, reaction time 1 h",34.4
same,Decomposition efficiency of daidzin family in roasted soy flour,"pH4, heat treatment of enzyme no, reaction time 3 h",20.5
same,Decomposition efficiency of daidzin family in roasted soy flour,"pH4, heat treatment of enzyme no, reaction time 6 h",11.1
same,Decomposition efficiency of daidzin family in roasted soy flour,"pH4, heat treatment of enzyme yes, reaction time 6 h",47.9
same,Decomposition efficiency of daidzin family in defatted soybean,[1],not detected
same,Decomposition efficiency of daidzin family in soymilk,[1],not detected
same,Decomposition efficiency of daidzin family in defatted soybean,[2],not detected
same,Decomposition efficiency of daidzin family in soymilk,[2],not detected
same,Decomposition efficiency of daidzin family in defatted soybean,[3],not detected
same,Decomposition efficiency of daidzin family in soymilk,[3],not detected
same,Decomposition efficiency of daidzin family in defatted soybean,[4],not detected
same,Decomposition efficiency of daidzin family in soymilk,[4],not detected
same,Decomposition efficiency of daidzin family in defatted soybean,[5],not detected
same,Decomposition efficiency of daidzin family in soymilk,[5],not detected
same,Decomposition efficiency of daidzin family in roasted soy flour,"pH5, heat treatment of enzyme no, reaction time 0 h",47.7
same,Decomposition efficiency of daidzin family in roasted soy flour,"pH5, heat treatment of enzyme no, reaction time 1 h",38.5
